Reference: US5225528A, “Cyclic hexapeptide oxytocin antagonists” (priority 1990, dated 1993)
Where a name gives a salt, the structure may show the parent alone. Read-outs that look alike come from different tables or passages of the source. Numbered stars: 1 amine (or outer) side, 2 acyl side, 3 side chain; on linkers, the order of the positions; unused ones are H or OH. Square brackets hold non-standard residues; d marks the D form. Peptide text beside a SMILES is read from it. * marks the point of attachment. dPip(4-aza,4-Cbz) = O=C(O)[C@H]1CN(C(=O)OCc2ccccc2)CCN1; X5 = CC(C)(C)OC(=O)CN1CCN([*:1])[C@H](C(=O)[*:2])C1; dPhe(4-NO2) = N[C@H](Cc1ccc([N+](=O)[O-])cc1)C(=O)O; X4 = O=C([C@@H](Cc1cn(COCc2ccccc2)cn1)N[*:1])[*:2]; dPiz(1,6-dehydro) = O=C(O)[C@H]1CCC=NN1; X3 = O=C([C@@H]1C=CCCN1[*:1])[*:2]; Pip(4-aza) = O=C(O)[C@@H]1CNCCN1; X6 = O=C([C@H]1CCCNN1[*:1])[*:2]; dNMeF = CN[C@H](Cc1ccccc1)C(=O)O; dPip(4-aza) = O=C(O)[C@H]1CNCCN1; hPhe = N[C@@H](CCc1ccccc1)C(=O)O; Pip = O=C(O)[C@@H]1CCCCN1; dPip = O=C(O)[C@H]1CCCCN1; Orn = NCCC[C@H](N)C(=O)O; dNMeA = CN[C@H](C)C(=O)O; Cbz = O=C(OCc1ccccc1)*; Boc = CC(C)(C)OC(=O)*; Bn = c1ccc(C*)cc1

Tests used:
[1] = biological target: T1, uterine OT receptors (Rattus norvegicus, UniProt P70536); experiment: [^3 H]OT binding to uterine OT receptors, crude membrane preparation of uteri from DES-treated rats; conditions: for inhibition at 0.1 µM / inhibition at 1 µM: 1 h, read-out: [^3 H]OT: percent inhibition of radioligand at the given concentration; for inhibition at 0.1 µM: @ 100 (nM); for inhibition at 1 µM: @ 1,000 (nM); for IC50: rat uterus membranes, 1 nM [^3 H]OT, read-out: Receptor Binding Results IC50 (nM) [^3 H]OT
T1 construct: from tissue; host or cells: uterus of DES-treated rats, crude membranes
T1 sequence (P70536 1-388): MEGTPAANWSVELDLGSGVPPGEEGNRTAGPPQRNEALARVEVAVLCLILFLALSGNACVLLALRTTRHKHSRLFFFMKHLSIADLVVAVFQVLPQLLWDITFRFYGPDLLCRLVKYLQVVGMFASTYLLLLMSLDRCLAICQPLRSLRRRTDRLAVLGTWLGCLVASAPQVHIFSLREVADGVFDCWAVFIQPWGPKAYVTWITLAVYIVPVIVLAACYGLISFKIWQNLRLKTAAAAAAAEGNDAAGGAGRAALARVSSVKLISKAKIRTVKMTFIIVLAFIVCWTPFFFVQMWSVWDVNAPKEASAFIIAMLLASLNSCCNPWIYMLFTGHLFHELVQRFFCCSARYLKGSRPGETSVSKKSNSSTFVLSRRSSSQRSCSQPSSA
Protocol: Competition studies were conducted at equilibrium (60 minutes; 22° C.) using 1 nM [^3 H]OT in the following assay buffer: 50 mM Tris-HCl, 5 mM MgCl2, and 0.1% BSA, pH 7.4.

[2] = biological target: T2, AVP-V2 sites (Rattus norvegicus, UniProt Q00788); experiment: [^3 H]AVP binding to crude membrane preparation of male rat kidney medulla (AVP-V2 sites); conditions: for IC50: read-out: Receptor Binding Results IC50 (nM) [^3 H]-AVP-V2
T2 construct: male rat liver (AVP-V1 sites) or kidney medulla (AVP-V2 sites); from tissue; host or cells: male rat kidney medulla, crude membranes
Protocol: (§1) Nonspecific binding (5-10% of the total binding) was determined using 10 μM unlabeled AVP, and the binding reaction was terminated by filtration as described above for the [^3 H]OT binding assay.

[3] = biological target: T3, AVP-V1 sites (Rattus norvegicus, UniProt P30560); experiment: [^3 H]AVP binding to crude membrane preparation of male rat liver (AVP-V1 sites)
T3 construct: crude membrane preparation of male rat liver (AVP-V1 sites); from tissue; host or cells: male rat liver, crude membranes
Protocol: as §1

[4] = rat kidney medulla membranes, 2 nM [^3 H]AVP
[5] = Receptor Binding Results IC50 (nM) [^3 H]-AVP-V1
[6] = read-out: Receptor Binding Results IC50 (nM) [^3 H]-AVP-V1

T3 sequence (P30560 whole entry): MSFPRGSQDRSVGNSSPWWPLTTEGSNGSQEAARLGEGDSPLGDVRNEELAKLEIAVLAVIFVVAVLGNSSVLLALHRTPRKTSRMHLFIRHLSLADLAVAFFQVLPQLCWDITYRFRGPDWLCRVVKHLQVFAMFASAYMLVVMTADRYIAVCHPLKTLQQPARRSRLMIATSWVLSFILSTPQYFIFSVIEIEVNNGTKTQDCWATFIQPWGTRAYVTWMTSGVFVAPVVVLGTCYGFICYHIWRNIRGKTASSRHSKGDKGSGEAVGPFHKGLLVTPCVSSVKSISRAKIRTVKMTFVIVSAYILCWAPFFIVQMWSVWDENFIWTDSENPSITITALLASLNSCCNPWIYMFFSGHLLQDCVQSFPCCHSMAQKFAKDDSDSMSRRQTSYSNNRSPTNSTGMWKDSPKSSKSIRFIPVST
T2 sequence (Q00788 whole entry): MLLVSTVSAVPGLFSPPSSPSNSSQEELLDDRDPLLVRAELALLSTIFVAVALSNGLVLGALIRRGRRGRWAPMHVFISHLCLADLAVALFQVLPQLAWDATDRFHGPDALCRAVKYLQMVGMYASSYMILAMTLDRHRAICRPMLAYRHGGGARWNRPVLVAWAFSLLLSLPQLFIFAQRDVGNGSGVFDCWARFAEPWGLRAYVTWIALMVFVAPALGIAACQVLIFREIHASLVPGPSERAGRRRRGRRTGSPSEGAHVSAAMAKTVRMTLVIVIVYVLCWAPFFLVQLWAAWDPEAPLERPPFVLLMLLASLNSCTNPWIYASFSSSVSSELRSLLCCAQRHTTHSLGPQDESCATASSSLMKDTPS

Row | Compound | IC50 [2, 4] [nM] | IC50 [3, 5] [nM] | IC50 [1] [nM] | other results
1 | CC[C@H](C)[C@@H]1NC(=O)[C@@H](Cc2c[nH]c3ccccc23)NC(=O)[C@@H]2CCCN2C(=O)[C@@H](Cc2ccccc2)NC(=O)[C@H]2CN(C(=O)OCc3ccccc3)CCN2C(=O)[C@H]2CCCCN2C1=O [Example 90, c-[D-Tryptophanyl-L-isoleucinyl-D-pipecolyl-D-piperazin-2-yl(4-Cbz)-D-phenylalanyl-L-prolyl]] (cyclo(I[dPip][dPip(4-aza,4-Cbz)][dF]P[dW])) | > 10000 | > 10000 | – | inhibition at 0.1 µM [1]: 59%
2 | CC[C@H](C)[C@@H]1NC(=O)[C@@H](Cc2ccccc2)NC(=O)[C@@H]2CCCN2C(=O)[C@@H](Cc2cn(COCc3ccccc3)cn2)NC(=O)[C@@H]2CNCCN2C(=O)[C@H]2CCCCN2C1=O [Example 176, c-[D-Phenylalanyl-L-isoleucinyl-D-pipecolyl-L-piperazin-2-yl-D-histidinyl(BOM)-L-prolyl]] (cyclo([dF]I[dPip][Pip(4-aza)][X4]P)) | – | 10000 | – | inhibition at 1 µM [1]: 80%; inhibition at 10 µM ([2]; 0.5 h, @ 10,000 (nM), read-out: [^3 H]-AVP-V2: percent inhibition of radioligand at the given concentration): 81%
3 | CC[C@H](C)[C@@H]1NC(=O)[C@@H](Cc2ccccc2)NC(=O)[C@@H]2CCCN2C(=O)[C@@H](Cc2ccccc2)N(C)C(=O)[C@H]2CN(C(=O)OCc3ccccc3)CCN2C(=O)[C@H]2CN(C(=O)OCc3ccccc3)CCN2C1=O [Example 85, c-[Phenylalanyl-L-isoleucinyl-D-piperazin-2-yl(4-Cbz)-D-piperazin-2-yl(4-Cbz)-D-(N^α -methyl)phenylalanyl-L-prolyl]] (cyclo([dF]I[dPip(4-aza,4-Cbz)][dPip(4-aza,4-Cbz)][dNMeF]P)) | 10000 | > 10000 | 1000 | –
4 | CC[C@H](C)[C@@H]1NC(=O)[C@@H](Cc2ccccc2)NC(=O)[C@@H]2CCCN2C(=O)[C@@H](Cc2ccccc2)NC(=O)[C@@H]2CNCCN2C(=O)[C@H]2CNCCN2C1=O [Example 80, c-[D-Phenylalanyl-L-isoleucinyl-D-piperazin-2-yl-L-piperazin-2-yl-D-phenylalanyl-L-prolyl]] (cyclo(I[dPip(4-aza)][Pip(4-aza)][dF]P[dF])) | > 10000 | > 10000 | 10000 | –
5 | CC[C@H](C)[C@@H]1NC(=O)[C@@H](Cc2ccccc2)NC(=O)[C@@H]2CCCN2C(=O)[C@@H](Cc2ccccc2)N(C)C(=O)[C@@H]2CCCCN2C(=O)[C@H]2CCCNN2C1=O [Example 111, c-[D-Phenylalanyl-L-isoleucyl-D-piperazyl-L-pipecolyl-N-methyl-D-phenylalanyl-L-prolyl]] (cyclo(I[X6][Pip][dNMeF]P[dF])) | – | – | 111 | IC50 [2]: 3500 nM; IC50 [3, 6]: 4200 nM
6 | CC[C@H](C)[C@@H]1NC(=O)[C@@H](Cc2ccc(OCc3ccccc3)cc2)NC(=O)[C@@H]2CCCN2C(=O)[C@@H](Cc2ccccc2)N(C)C(=O)[C@H](CCCCN)NC(=O)[C@H]2CCCCN2C1=O [Example 145, C-[D-(O-Benzyl)Tyrosyl-L-isoleucyl-D-pipecolyl-L-lysyl-D-(N-methyl)phenylalanyl-L-prolyl]] (cyclo(I[dPip]K[dNMeF]P[dY](Bn))) | 10000 | > 10000 | – | inhibition at 1 µM [1]: 9%
7 | C-[D,L-3-(3-(5-Methoxy)indolyl)alanyl-L-isoleucyl-D-pipecolyl-L-pipecolyl-D-histidyl-L-prolyl] [Example 156] | > 30000 | – | 1100 | IC50 ([3]; rat liver membranes, 1 nM [^3 H]AVP, read-out: Receptor Binding Results IC50 (nM) [^3 H]-AVP-V1): > 30000 nM
8 | CC[C@H](C)[C@@H]1NC(=O)[C@@H](Cc2c[nH]c3ccccc23)NC(=O)[C@@H]2CCCN2C(=O)[C@@H](Cc2ccccc2)N(C)C(=O)[C@H](CCCNC(=O)OCc2ccccc2)NC(=O)[C@H]2CCCCN2C1=O [Example 34, Cyclo[D-trytophanyl-L-isoleucyl-D-pipecolyl-L-(carbobenzyloxy)ornithyl-D-(N^α methyl)phenylalanyl-L-prolyl]] (cyclo(I[dPip][Orn](Cbz)[dNMeF]P[dW])) | 10000 | > 1000 | 100 | –
9 | CC[C@H](C)[C@@H]1NC(=O)[C@@H](Cc2ccccc2)NC(=O)[C@@H]2CCCN2C(=O)[C@@H](Cc2ccccc2)N(C)C(=O)[C@@H]2C=CCCN2C(=O)[C@H]2CCCCN2C1=O [Example 23, Cyclo[D-phenylanyl-L-isoleucyl-D-pipecolyl-L-(3,4-dehydro)-pipecolyl-D-(N^α methyl)phenylalanyl-L-prolyl]] (cyclo(I[dPip][X3][dNMeF]P[dF])) | > 10000 | > 10000 | 625 | –
10 | CN1C(=O)[C@@H]2CCCCN2C(=O)[C@H]2CCCCN2C(=O)[C@H](CCc2ccccc2)NC(=O)[C@@H](Cc2c[nH]c3ccccc23)NC(=O)[C@@H]2CCCN2C(=O)[C@H]1Cc1ccccc1 [Example 133, c-[D-Tryptophanyl-L-homophenylalanyl-D-pipecolyl-L-pipecolyl-D-(N-methyl)phenylalanyl-prolyl]] (cyclo(P[dW][hPhe][dPip][Pip][dNMeF])) | 10000 | 10000 | 3600 | –
11 | CC[C@H](C)[C@@H]1NC(=O)[C@@H](Cc2c[nH]c3ccccc23)NC(=O)[C@@H]2CCCN2C(=O)[C@@H](Cc2c[nH]c3ccccc23)NC(=O)[C@@H]2CN(CC(=O)OC(C)(C)C)CCN2C(=O)[C@H]2CCCCN2C1=O [Example 162, c-[D-Tryptophanyl-L-isoleucinyl-D-pipecolyl-L-piperazin-2-yl(4-t-butylacetyl)-D-tryptophanyl-L-prolyl]] (cyclo([dW]I[dPip][X5][dW]P)) | 10000 | > 10000 | – | inhibition at 0.1 µM [1]: 54%
12 | CC[C@H](C)[C@@H]1NC(=O)[C@@H](Cc2ccccc2)NC(=O)[C@@H]2CCCN2C(=O)[C@@H](Cc2ccccc2)N(C)C(=O)[C@@H](C)N(C)C(=O)[C@H]2CCCCN2C1=O [Example 6, Cyclo[D-phenyalanyl-L-isoleucyl-D-pipecolyl-L-(N^α -methyl)alanyl-D-(N^α Methyl)phenylanyl-L-prolyl]] (cyclo([dF]I[dPip][dNMeA][dNMeF]P)) | > 10000 | > 10000 | 1800 | –
13 | CC[C@H](C)[C@@H]1NC(=O)[C@@H](Cc2ccccc2)NC(=O)[C@@H]2CCCN2C(=O)[C@@H](Cc2ccccc2)NC(=O)[C@@H]2CCCCN2C(=O)[C@H]2CCCCN2C1=O [Example 103, c-[D-Phenylalanyl-L-isoleucyl-D-pipecolyl-L-pipecolyl-D-phenylalanyl-L-prolyl]] (cyclo(I[dPip][Pip][dF]P[dF])) | > 10000 | – | 370 | IC50 [3, 6]: 5690 nM
14 | CC[C@H](C)[C@@H]1NC(=O)[C@@H](Cc2ccccc2)NC(=O)[C@@H]2CCCN2C(=O)[C@@H](Cc2ccccc2)N(C)C(=O)[C@H](CCCN)NC(=O)[C@H]2CCC=NN2C1=O [Example 125, c-[D-Phenylalanyl-L-isoleucyl-D-Δ-piperazyl-L-ornithyl-D-(N-methyl)phenylalanyl-L-prolyl] acetate salt] (cyclo(I[dPiz(1,6-dehydro)][Orn][dNMeF]P[dF])) | 1600 | – | 16 | IC50 [3, 6]: 810 nM
15 | CC[C@H](C)[C@@H]1NC(=O)[C@@H](Cc2ccccc2)NC(=O)[C@@H]2CCCN2C(=O)[C@@H](Cc2ccc([N+](=O)[O-])cc2)NC(=O)[C@@H]2CCCCN2C(=O)[C@H]2CCCCN2C1=O [Example 47, Cyclo[D-phenylalanyl-L-isoleucyl-D-pipecolyl-L-pipecolyl-D(p-nitro)phenylalanyl-L-prolyl]] (cyclo(I[dPip][Pip][dPhe(4-NO2)]P[dF])) | 10000 | > 1000 | 620 | –
16 | CC[C@H](C)[C@@H]1NC(=O)[C@@H](Cc2ccc(OC)cc2)NC(=O)[C@@H]2CCCN2C(=O)[C@@H](Cc2ccccc2)N(C)C(=O)[C@H](CCCCN)NC(=O)[C@H]2CCCCN2C1=O [Example 150, c-[D-(O-Methyl)Tyrosyl-L-isoleucyl-D-pipecolyl-L-lysyl-D-(N-methyl)phenylalanyl-L-prolyl]] (cyclo(I[dPip]K[dNMeF]P[dY](Me))) | – | 10000 | 44 | inhibition at 1 µM ([2]; 0.5 h, @ 1,000 (nM), read-out: [^3 H]-AVP-V2: percent inhibition of radioligand at the given concentration): 62%
17 | CC[C@H](C)[C@@H]1NC(=O)[C@@H](Cc2ccccc2)NC(=O)[C@@H]2CCCN2C(=O)[C@@H](Cc2ccccc2)N(C)C(=O)[C@H](CCCNC(=O)OC(C)(C)C)NC(=O)[C@H]2CCC=NN2C1=O [Example 124, c-[D-Phenylalanyl-L-isoleucyl-D-Δ-piperazyl(N^δ -Boc)-L-orinthyl-N-methyl-D-δ-phenyl-alaninyl-L-prolyl]] (cyclo(I[dPiz(1,6-dehydro)][Orn](Boc)[dNMeF]P[dF])) | – | – | 17.5 | IC50 [2]: 3600 nM; IC50 [3, 6]: 2700 nM
